Source: patent publication US20260116868A1 (Arcus Biosciences, Inc., priority 2023, published 2026)

Target: T1, Cbl-b (Homo sapiens, UniProt Q13191)
T1 construct: biotin (biotinylated protein)
Assay: Cbl-b probe displacement HTRF binding assay
Settings: 0.4 nM Cbl-b, 150 nM BODIPY probe
Method: The affinity with which compounds of the present disclosure bind to Cbl-b was assessed using probe displacement homologous time resolved fluorescence (HTRF) assays. The assays used a BODIPY™ conjugated probe (Example 54 from WO 2020264398) and biotinylated Cbl-b. The assays were performed in assay buffer consisting of 20 mM Hepes, 150 mM NaCl, 0.01% Triton X-100, 0.5 mM TCEP, 0.01% BSA. On the day of the assay, a 20 point, 1:2 master serial dilution of each compound was prepared in DMSO to span a final concentration range of […] to 0 nM. Two hundred nanoliters of diluted compound was added to each well of a 384-well plate. Fifteen microliters of biotinylated- Cbl-b resuspended in assay buffer were added to each well and the plate incubated for 60 minutes at room temperature prior to addition of 5 μL of BODIPY™ probe in assay buffer. Final assay conditions included 0.4 nM of Cbl-b and 150 nM of BODIPY™ probe. After a further 15 minutes of incubation at room temperature, 5 μl of Streptavidin-Terbium cryptate reagent at 5-fold final concentration was added to each well of the 384-well plate. Binding of a probe to Cbl-b results in an increase of HTRF signal. HTRF signal was measured by Envision plate reader, while competition of a compound of the present disclosure with probe results in a decrease of signal. Percentage maximum activity in each test well was calculated based on DMSO (maximum activity, 0% displacement) and no protein control wells (baseline activity, 100% displacement). Binding affinity was determined from a dose response curve fitted using a standard four parameter fit equation. See Table 7 for data for compounds (Cbl-b Binding (IC50)).

T1 sequence (Q13191 whole entry, species assumed): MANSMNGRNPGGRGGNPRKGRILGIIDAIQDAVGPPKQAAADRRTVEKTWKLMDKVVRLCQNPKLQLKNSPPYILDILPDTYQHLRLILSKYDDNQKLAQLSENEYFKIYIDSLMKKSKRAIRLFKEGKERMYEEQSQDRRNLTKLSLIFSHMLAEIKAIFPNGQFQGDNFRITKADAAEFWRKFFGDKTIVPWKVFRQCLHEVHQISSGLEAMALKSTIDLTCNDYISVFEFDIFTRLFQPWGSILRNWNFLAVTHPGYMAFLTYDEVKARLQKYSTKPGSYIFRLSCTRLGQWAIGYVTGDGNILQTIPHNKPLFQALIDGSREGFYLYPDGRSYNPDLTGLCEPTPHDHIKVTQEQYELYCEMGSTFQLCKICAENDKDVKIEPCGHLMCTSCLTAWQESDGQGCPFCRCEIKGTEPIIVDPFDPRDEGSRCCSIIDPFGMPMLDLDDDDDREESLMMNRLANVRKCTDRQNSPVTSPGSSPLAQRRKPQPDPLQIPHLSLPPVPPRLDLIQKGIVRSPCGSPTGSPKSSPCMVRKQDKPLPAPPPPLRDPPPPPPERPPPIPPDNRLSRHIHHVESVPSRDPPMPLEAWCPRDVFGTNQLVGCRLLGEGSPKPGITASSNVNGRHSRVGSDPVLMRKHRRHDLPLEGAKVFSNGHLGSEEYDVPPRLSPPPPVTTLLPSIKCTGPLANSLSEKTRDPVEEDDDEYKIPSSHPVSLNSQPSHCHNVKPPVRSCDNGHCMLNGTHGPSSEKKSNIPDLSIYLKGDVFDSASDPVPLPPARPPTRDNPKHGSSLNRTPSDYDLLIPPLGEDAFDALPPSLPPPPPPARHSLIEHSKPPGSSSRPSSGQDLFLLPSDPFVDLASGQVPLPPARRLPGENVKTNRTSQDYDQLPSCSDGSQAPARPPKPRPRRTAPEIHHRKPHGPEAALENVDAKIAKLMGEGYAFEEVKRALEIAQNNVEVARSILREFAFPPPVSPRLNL

Row | IC50 | Compound
1 | < 100 nM | COc1ccc(-c2cc(NC(=O)c3cc(CN[C@@H](C)C4CC4)cn(C)c3=O)nc(C3CC3)c2)c(C(=O)N2CC(F)C2)c1 [Example 312]
2 | < 100 nM | CO[C@@H](C)CNCc1cc(C(=O)Nc2cc(-c3ccc(OC(F)F)cc3C(=O)N3CC(F)(F)C3)cc(OC(C)C)n2)c(=O)n(C2CC2)c1 [Example 197]
3 | < 100 nM | CC(C)Oc1cc(-c2ccc(C#N)cc2C(=O)N2CC(F)C2)cc(NC(=O)c2cc(CNC[C@@H]3CCCO3)cn(C)c2=O)n1 [Example 279]
4 | < 100 nM | O=C(Nc1cc(-c2ccc(OC(F)F)cc2C(=O)N2CC(F)(F)C2)cc(C2CC2)n1)c1cc(CNC[C@@H]2COCCO2)cn(C2CC2)c1=O [Example 379]
5 | < 100 nM | C=CCn1cc(CN2CCC[C@H](C)C2)cc(C(=O)Nc2cccc(C3(c4nncn4C)CC(C)C3)c2)c1=O (mixture of isomers) [Example 77, N-[3-[3-methyl-1-(4-methyl-1,2,4-triazol-3-yl)cyclobutyl]phenyl]-5-[[(3S)-3-methylpiperidin-1-yl]methyl]-2-oxo-1-prop-2-enylpyridine-3-carboxamide]
6 | < 100 nM | CO[C@@H](C)CNCc1cc(C(=O)Nc2cc(-c3ccc(Cl)cc3C(=O)N3CC(F)C3)cc(OC(C)C)n2)c(=O)n(C2CC2)c1 [Example 253]
7 | < 100 nM | N#Cc1ccc(-c2cc(NC(=O)c3cc(CNC[C@@H]4CCOC4)cn(C4CC4)c3=O)nc(C3CC3)c2)c(C(=O)N2CC(F)(F)C2)c1 [Example 412]
8 | < 100 nM | CC(C)(F)CNCc1cc(C(=O)Nc2cc(-c3ccc(C#N)cc3C(=O)N3CC(F)(F)C3)cc(C3CC3)n2)c(=O)n(C2CC2)c1 [Example 244]
9 | < 100 nM | COc1ccc(-c2cc(NC(=O)c3cc(CNC[C@H](C)OC)cn(C)c3=O)nc(OC(C)C)c2)c(C(=O)N2CC(F)C2)c1 [Example 302]
10 | < 100 nM | CC(C)CNCc1cc(C(=O)Nc2cc(-c3ccc(OC(F)F)cc3C(=O)N3CC(F)C3)cc(OC(C)C)n2)c(=O)n(C2CC2)c1 [Example 267]
11 | < 100 nM | CO[C@@H](C)CNCc1cc(C(=O)Nc2cc(-c3c(F)cc(C#N)cc3C(=O)N3CC(F)(F)C3)cc(OC(C)C)n2)c(=O)n(C)c1 [Example 235]
12 | < 100 nM | Cn1cc(CNC[C@@H]2CCCCO2)cc(C(=O)Nc2cc(-c3ccc(OC(F)F)cc3C(=O)N3CC(F)(F)C3)cc(C3CC3)n2)c1=O [Example 111, N-[6-cyclopropyl-4-[2-(3,3-difluoroazetidine-1-carbonyl)-4-(difluoromethoxy)phenyl]pyridin-2-yl]-1-methyl-5-[[[(2S)-oxan-2-yl]methylamino]methyl]-2-oxopyridine-3-carboxamide]
13 | < 100 nM | CO[C@@H](C)CNCc1cc(C(=O)Nc2cc(-c3ccc(Cl)cc3C(=O)N3CC(C)C3)cc(C3CC3)n2)c(=O)n(C2CC2)c1 [Example 159, N-(4-{4-Chloro-2-[(3-methyl-1-azetidinyl)carbonyl]phenyl}-6-cyclopropyl-2-pyridyl)-1-cyclopropyl-5-{[(S)-2-methoxypropylamino]methyl}-2-oxo-1,2-dihydronicotinamide]
14 | < 100 nM | C[C@H](N[C@H](C)c1cc(C(=O)Nc2cc(-c3ccc(C#N)cc3C(=O)N3CC(F)(F)C3)cc(C3CC3)n2)c(=O)n(C2CC2)c1)C1CC1 [Example 323]
15 | < 100 nM | CO[C@@H](C)CNCc1cc(C(=O)Nc2cc(-c3ccc(F)cc3C(=O)N3CC(F)(F)C3)cc(NC(C)C)n2)c(=O)n(C2CC2)c1 [Example 357]
16 | < 100 nM | CC(C)Oc1cc(-c2c(F)cc(C#N)cc2C(=O)N2CC(F)(F)C2)cc(NC(=O)c2cc(CN[C@@H](C)C3CC3)cn(C)c2=O)n1 [Example 233]
17 | < 100 nM | CO[C@@H](C)CNCc1cc(C(=O)Nc2cc(-c3ccc(C)cc3C(=O)N3CC(F)C3)cc(OC(C)C)n2)c(=O)n(C2CC2)c1 [Example 290]
18 | < 100 nM | Cc1ccc(-c2cc(NC(=O)c3cc(CN[C@@H](C)C4CCC4)cn(C4CC4)c3=O)nc(OCC(F)F)c2)c(C(=O)N2CC(F)(F)C2)c1 [Example 347]
19 | < 100 nM | CC(C)Oc1cc(-c2ccc(OC(F)F)cc2C(=O)N2CC(F)C2)cc(NC(=O)c2cc(CNC[C@@H]3COCCO3)cn(C)c2=O)n1 [Example 377]
20 | < 100 nM | N#Cc1ccc(-c2cc(NC(=O)c3cc(CNC[C@@H]4CCCO4)cn(C4CC4)c3=O)nc(OC(F)F)c2)c(C(=O)N2CC(F)(F)C2)c1 [Example 341]
21 | < 100 nM | CO[C@@H](C)CNCc1cc(C(=O)Nc2cc(-c3ccc(C#N)cc3C(=O)N3CC(C)(F)C3)cc(C3CC3)n2)c(=O)n(C2CC2)c1 [Example 394]
22 | < 100 nM | C[C@H](NCc1cc(C(=O)Nc2cc(-c3c(F)cc(C#N)cc3C(=O)N3CC(F)(F)C3)cc(C3CC3)n2)c(=O)n(C2CC2)c1)C1CCC1 [Example 218]
23 | < 100 nM | CCOc1cc(-c2ccc(C#N)cc2C(=O)N2CC(F)(F)C2)cc(NC(=O)c2cc(CNC[C@H](C)OC)cn(C3CC3)c2=O)n1 [Example 206]
24 | < 100 nM | COc1ccc(-c2cc(NC(=O)c3cc(CN[C@@H](C)C4CCC4)cn(C4CC4)c3=O)nc(C3CC3)c2)c(C(=O)N2CC(F)C2)c1 [Example 260]

The next lines start with the compound.

Row | Compound | IC50
25 | C[C@H](NCc1cc(C(=O)Nc2cc(-c3cc(F)c(Cl)cc3C(=O)N3CC(F)(F)C3)cc(C3CC3)n2)c(=O)n(C2CC2)c1)C1CCC1 [Example 216] | < 100 nM
26 | CCOc1cc(-c2c(F)cc(Cl)cc2C(=O)N2CC(F)(F)C2)cc(NC(=O)c2cc(CN[C@@H](C)[C@H](C)OC)cn(C3CC3)c2=O)n1 [Example 203] | < 100 nM
27 | CCOc1cc(-c2ccc(OC(F)F)cc2C(=O)N2CC(F)C2)cc(NC(=O)c2cc(CNC[C@@H]3CCCO3)cn(C)c2=O)n1 [Example 282] | < 100 nM
28 | CC(C)Oc1cc(-c2ccc(C#N)cc2C(=O)N2CC(F)(F)C2)cc(NC(=O)c2cc(CNC(C)C3CC3)cn(C3CC3)c2=O)n1 (stereo in doubt) [Example 140, N-(4-{4-cyano-2-[(3,3-difluoro-1-azetidinyl)carbonyl]phenyl}-6-isopropoxy-2-pyridyl)-1-cyclopropyl-5-{[(S)-1-cyclopropylethylamino]methyl}-2-oxo-1,2-dihydronicotinamide] | < 100 nM
29 | CCOc1cc(-c2ccc(OC(F)F)cc2C(=O)N2CC(F)C2)cc(NC(=O)c2cc(CNCC(C)C)cn(C3CC3)c2=O)n1 [Example 268] | < 100 nM
30 | CCOc1cc(-c2ccc(F)cc2C(=O)N2CC(F)(F)C2)cc(NC(=O)c2cc(CNC[C@H](C)OC)cn(C3CC3)c2=O)n1 [Example 373] | < 100 nM
31 | CCOc1cc(-c2c(F)cc(Cl)cc2C(=O)N2CC(F)(F)C2)cc(NC(=O)c2cc(CN[C@@H](C)C3CCC3)cn(C3CC3)c2=O)n1 [Example 207] | < 100 nM
32 | C[C@H](NCc1cc(C(=O)Nc2cc(-c3ccc(OC(F)F)cc3C(=O)N3CC(F)(F)C3)cc(C3CC3)n2)c(=O)n(C2CC2)c1)C1CCC1 [Example 327] | < 100 nM
33 | COCCNCc1cc(C(=O)Nc2cc(-c3ccc(C#N)cc3C(=O)N3CC(F)(F)C3)cc(C3CC3)n2)c(=O)n(C)c1 [Example 187] | < 100 nM
34 | CC(C)[C@H](C)N[C@@H](C)c1cc(C(=O)Nc2cc(-c3ccc(C#N)cc3C(=O)N3CC(F)(F)C3)cc(C3CC3)n2)c(=O)n(C2CC2)c1 [Example 336] | < 100 nM
35 | CC(C)Oc1cc(-c2c(F)cc(C#N)cc2C(=O)N2CC(F)(F)C2)cc(NC(=O)c2cc(CNC[C@@H]3CCCO3)cn(C3CC3)c2=O)n1 [Example 101, N-[4-[4-cyano-2-(3,3-difluoroazetidine-1-carbonyl)-6-fluorophenyl]-6-propan-2-yloxypyridin-2-yl]-1-cyclopropyl-2-oxo-5-[[[(2S)-oxolan-2-yl]methylamino]methyl]pyridine-3-carboxamide] | < 100 nM
36 | CC(C)CNCc1cc(C(=O)Nc2cc(-c3ccc(OC(F)F)cc3C(=O)N3CC(F)(F)C3)cc(C3CC3)n2)c(=O)n(C)c1 [Example 109, N-[6-cyclopropyl-4-[2-(3,3-difluoroazetidine-1-carbonyl)-4-(difluoromethoxy)phenyl]pyridin-2-yl]-1-methyl-5-[(2-methylpropylamino)methyl]-2-oxopyridine-3-carboxamide] | < 100 nM
37 | CO[C@@H](C)CNCc1cc(C(=O)Nc2cc(-c3ccc(Cl)cc3C(=O)N3CC(F)C3)cc(NC(C)C)n2)c(=O)n(C2CC2)c1 [Example 258] | < 100 nM
38 | N#Cc1ccc(-c2cc(NC(=O)c3cc(CNC4CCCC4)cn(C4CC4)c3=O)nc(C3CC3)c2)c(C(=O)N2CC(F)(F)C2)c1 [Example 397] | < 100 nM
39 | COCCNCc1cc(C(=O)Nc2cc(-c3ccc(Cl)cc3C(=O)N3CC(F)(F)C3)cc(C3CC3)n2)c(=O)n(C2CC2)c1 [Example 382] | < 100 nM
40 | CC(C)CNCc1cc(C(=O)Nc2cc(-c3ccc(Cl)cc3C(=O)N3CC(F)C3)cc(OC(C)C)n2)c(=O)n(C2CC2)c1 [Example 251] | < 100 nM
41 | C[C@H](NCc1cc(C(=O)Nc2cc(-c3ccc(Cl)cc3C(=O)N3CC(F)(F)C3)cc(C3CC3)n2)c(=O)n(C2CC2)c1)C1CC1 [Example 135, N-(4-{4-chloro-2-[(3,3-difluoro-1-azetidinyl)carbonyl]phenyl}-6-cyclopropyl-2-pyridyl)-1-cyclopropyl-5-{[(S)-1-cyclopropylethylamino]methyl}-2-oxo-1,2-dihydronicotinamide] | < 100 nM
